# Experimental data: article PMC12217481, “Structure and mechanism of taniborbactam inhibition of the cefepime-hydrolyzing, partial R2-loop deletion Pseudomonas-derived cephalosporinase variant PDC-88” (Antimicrobial Agents and Chemotherapy, 2025)
# Like-named read-outs stand apart in the source and are kept apart here.
# Legend:
# [1] = test system: E. coli DH10B/pTU626 (PDC-89); assay: Broth microdilution MIC, isogenic E. coli expressing PDC-89; assay type: cell-based; conditions: Escherichia coli
# Method: (§1) Genetic constructs used for minimum inhibitory concentration (MIC) testing were designed by Venatorx Pharmaceuticals and codon-optimized for use in E. coli and synthesized by Twist Bioscience as described previously ([9]). […] DH10B cells expressing an empty pET24a(+) vector (Novagen) were also grown, and the plasmid purified. Both pCR4-TOPO-PDC-88 and empty pET24a(+) were cut with BamHI and NdeI, the digests run on low-melting point agarose gels, and the bands of interest excised and ligated to yield a PDC-88 expressing pET24a(+) construct with the His tag removed. The PDC-3 expression construct was created in a similar manner but starting with a previously described pBC SK(−) vector ([42]). The final plasmids were grown in E. coli DH10B cells and purified.
# (§2) Modal broth microdilution MICs (or median broth microdilution MICs where appropriate) were determined in accordance with Clinical and Laboratory Standards Institute (CLSI) M07 guidelines ([43]). Isogenic E. coli DH10B cells expressing the abovementioned plasmid-encoded PDC constructs were used. […] CLSI quality control strains Escherichia coli NCTC 13353, E. coli ATCC 35218, and Klebsiella pneumoniae ATCC 700603 were used during testing ([24]).
# [2] = test system: E. coli DH10B/pTU609 (PDC-3); assay: Broth microdilution MIC, isogenic E. coli expressing PDC-3; assay type: cell-based; conditions: Escherichia coli
# Method: as §1, §2
# [3] = test system: PDC-88; assay: Spectrophotometric β-lactam hydrolysis (progress curves, steady-state kinetics) by PDC-88; assay type: biochemical, Pseudomonas aeruginosa; conditions: over 900 s
# Method: In order to determine the impact of the PDC-88 variant on hydrolysis, we determined hydrolysis progress curves for PDC-3, PDC-88, and a strongly hydrolyzing comparator (NDM-1 or PER-2) for cefepime (FEP, Fig. 3A), ceftazidime (CAZ, Fig. 3B), ceftolozane (TOL, Fig. 3C), and aztreonam (ATM, Fig. 3D).
# β-Lactamase kinetic and inhibitor constants were determined using an Agilent 8453 UV-Visible Spectrophotometer to record progress curves and determine initial rates and other kinetic parameters as appropriate. Reactions were carried out in 1× phosphate-buffered saline (PBS) (pH 7.4) at room temperature in a 0.2 cm path-length quartz cuvette (Hellma Analytics). Reads were taken every 10 s to minimize UV-mediated background hydrolysis.
# The extinction coefficients used were: nitrocefin, Δε482 = 17,400 M^−1 cm^−1, and cefepime, Δε260 = −10,000 M^−1 cm^−1.
# The kinetic constants KM and Vmax were determined using a nonlinear least-squares regression of the data to the Henri-Michaelis-Menten equation (equation 1) in Origin Version 2020b (OriginLab, Northampton, MA), where v is the velocity of the reaction; Vmax is the theoretical maximum velocity; KM is the Michaelis constant; and [S] is the substrate concentration: […]
# [4] = molecular target: T1, PDC-3 (Pseudomonas aeruginosa, UniProt P24735, T105A); assay: Timed ESI-MS of acyl-enzyme formation, PDC-3; assay type: biochemical; conditions: timed ESI-MS, 1 to 30 min (ATM to 60 min)
# T1 construct: The PDC-3 expression construct was created in a similar manner but starting with a previously described pBC SK(−) vector; made in house; host or cells: E. coli BL21-CodonPlus (DE3)-RP, pET24a(+)
# Method: (§3) Timed ESI-MS experiments allow tracking of the reaction over time and determination of product modification, enabling the elucidation of mechanistic detail. Time courses were collected for both PDC-3 and PDC-88 with FEP (Fig. 4), CAZ (Fig. S1), TOL (Fig. S2), and ATM (Fig. S3). Substrate modification (here, loss of the R2 group) was determined based on differences between masses of apo and acyl-enzyme peaks (Fig. S4). […] Based on the differences in mass between the apo enzyme peaks, the acyl-enzyme peaks, and the molecular masses of each substrate, the mass of the adducts was determined and used to predict any portion of the substrate molecule that might be lost during the reaction (Fig. S4). As expected ([26][–][28]), all three cephalosporin antibiotics (FEP, CAZ, and TOL) lost their R2 groups during the reaction, while ATM (the sole monobactam) maintained its initial mass.
# (§4) Five micrograms of PDC-3 or PDC-88 was incubated at the indicated molar ratio (1:2 to 1:100 PDC:β-lactam) in a total volume of 20 µL in 1× PBS at pH 7.4 at room temperature for the duration of the indicated time points. Reactions were quenched with the addition of 10 µL acetonitrile and added to 1 mL of 0.1% formic acid in water.
# (§5) Data were collected using a Waters Synapt G2-Si quadrupole time-of-flight (Q-TOF) mass spectrometer and Waters Acquity UPLC BEH C18 1.7 µm column (2.1 by 100 mm). MassLynx V4.1 was used to deconvolute protein peaks. The tune settings for each sample were as follows: capillary voltage of 3.5 kV, sampling cone voltage of 35 V, source offset of 35 V, source temperature of 100°C, desolvation temperature of 500°C, cone gas flow rate of 100 L/h, desolvation gas flow rate of 800 L/h, and nebulizer bar at 6.0. Mobile phase A was 0.1% formic acid in water. Mobile phase B was 0.1% formic acid in acetonitrile. The mass accuracy of this system is ±5 Da.
# [5] = test system: E. coli DH10B/pTU501 (vector); assay: Broth microdilution MIC, isogenic E. coli empty vector control; assay type: cell-based; conditions: Escherichia coli
# Method: as §1, §2
# [6] = test system: E. coli DH10B/pTU625 (PDC-88); assay: Broth microdilution MIC, isogenic E. coli expressing PDC-88; assay type: cell-based, Escherichia coli; conditions: Escherichia coli
# Method: as §1, §2
# [7] = test system: E. coli DH10B/pTU606 (PDC-1); assay: Broth microdilution MIC, isogenic E. coli expressing PDC-1; assay type: cell-based; conditions: Escherichia coli
# Method: as §1, §2
# [8] = test system: K. pneumoniae ATCC 700603; assay: Broth microdilution MIC, CLSI quality control strain; assay type: cell-based; conditions: Klebsiella pneumoniae
# Method: as §2
# [9] = test system: E. coli DH10B/pTU627 (PDC-90); assay: Broth microdilution MIC, isogenic E. coli expressing PDC-90; assay type: cell-based; conditions: Escherichia coli
# Method: as §1, §2
# [10] = test system: E. coli DH10B/pTU628 (PDC-91); assay: Broth microdilution MIC, isogenic E. coli expressing PDC-91; assay type: cell-based; conditions: Escherichia coli
# Method: as §1, §2
# [11] = test system: E. coli DH10B/pTU629 (PDC-92); assay: Broth microdilution MIC, isogenic E. coli expressing PDC-92; assay type: cell-based; conditions: Escherichia coli
# Method: as §1, §2
# [12] = molecular target: T2, PDC-88 (Pseudomonas aeruginosa, UniProt P24735, DEL316-317/G27D/G391A/T105A/V205L/V356I); assay: Timed ESI-MS of acyl-enzyme formation, PDC-88; assay type: biochemical; conditions: timed ESI-MS, 1 to 30 min (ATM to 60 min)
# T2 construct: NdeI 5′-[…]-3ʹ and BamHI 5ʹ-[…]-3ʹ; His tag removed) (N); made in house; host or cells: E. coli BL21-CodonPlus (DE3)-RP, pET24a(+)
# Method: as §3, §4, §5
# [13] = test system: E. coli ATCC 35218; assay: Broth microdilution MIC, CLSI quality control strain; assay type: cell-based; conditions: Escherichia coli, ATCC35218, read-out: MIC TOL TZB
# Method: as §2
# [14] = molecular target: T2, PDC-88; assay type: binding
# Method: Circular dichroism (CD) melting curve experiments were conducted using a J-815 spectropolarimeter (Jasco) and a Peltier effect temperature controller. Suprasil quartz cuvettes with a 0.1 cm path length (Hellma Analytics) were used in all experiments. […] Equilibrium constants were calculated, and the melting temperature, Tm, was calculated from equilibrium denaturation data as previously described ([28]).
# [15] = test system: isogenic E. coli strains expressing PDC R2-loop deletion variants (PDC-88 to PDC-92); assay: MIC changes across the five isogenic E. coli R2-loop deletion strains; assay type: cell-based, Escherichia coli; conditions: R2-loop deletion variant strains
# Method: as §2
# [16] = molecular target: T1, PDC-3; assay: Thermal denaturation by circular dichroism, PDC-3; assay type: binding
# Method: Competitive enzyme inhibitors can increase enzyme thermal stability as a result of binding to the active site.
# Circular dichroism (CD) melting curve experiments were conducted using a J-815 spectropolarimeter (Jasco) and a Peltier effect temperature controller. Suprasil quartz cuvettes with a 0.1 cm path length (Hellma Analytics) were used in all experiments. […] Two-state behavior was observed, as indicated by identical curves at each wavelength. Equilibrium constants were calculated, and the melting temperature, Tm, was calculated from equilibrium denaturation data as previously described ([28]).
smiles,measurement,setting,value
"CC(C)(O/N=C(\C(=O)N[C@@H]1C(=O)N2C(C(=O)[O-])=C(C[n+]3ccccc3)CS[C@H]12)c1csc(N)n1)C(=O)O [CAZ, ceftazidime]",MIC,[1]; read-out: MIC CAZ AVI,1 µg/mL
same,MIC,"[1]; E. coli DH10B/pTU626 (PDC-89), read-out: MIC CAZ Alone",128 µg/mL
same,MIC,[2]; read-out: MIC CAZ AVI,1 µg/mL
same,MIC,"[2]; E. coli DH10B/pTU609 (PDC-3), read-out: MIC CAZ Alone",64 µg/mL
same,difference between hydrolysis progress curves of PDC-3 and PDC-88,[3],no appreciable difference
same,acyl-enzyme complex formation and deacylation,[4],formed acyl-enzyme complexes with CAZ that deacylated slowly
same,MIC,[5]; read-out: MIC CAZ AVI,0.5 µg/mL
same,MIC,[5]; read-out: MIC CAZ Alone,0.5 µg/mL
same,MIC,[6]; read-out: MIC CAZ AVI,1 µg/mL
same,MIC,"[6]; E. coli DH10B/pTU625 (PDC-88), read-out: MIC CAZ Alone",128 µg/mL
same,MIC,[7]; read-out: MIC CAZ AVI,1 µg/mL
same,MIC,"[7]; E. coli DH10B/pTU606 (PDC-1), read-out: MIC CAZ Alone",64 µg/mL
same,MIC,"[8]; ATCC700603, read-out: MIC CAZ AVI",1 µg/mL
same,MIC,"[8]; ATCC700603, read-out: MIC CAZ Alone",32 µg/mL
same,MIC,[9]; read-out: MIC CAZ AVI,2 µg/mL
same,MIC,"[9]; E. coli DH10B/pTU627 (PDC-90), read-out: MIC CAZ Alone",> 128 µg/mL
same,MIC,[10]; read-out: MIC CAZ AVI,1 µg/mL
same,MIC,"[10]; E. coli DH10B/pTU628 (PDC-91), read-out: MIC CAZ Alone",128 µg/mL
same,MIC,[11]; read-out: MIC CAZ AVI,1 µg/mL
same,MIC,"[11]; E. coli DH10B/pTU629 (PDC-92), read-out: MIC CAZ Alone",> 128 µg/mL
same,acyl-enzyme complex formation and deacylation,[12],formed acyl-enzyme complexes with CAZ that deacylated slowly
"Cn1c(N)c(NC(=O)NCCN)c[n+]1CC1=C(C(=O)O)N2C(=O)[C@@H](NC(=O)/C(=N\OC(C)(C)C(=O)[O-])c3nsc(N)n3)[C@H]2SC1 [TOL, ceftolozane]",MIC,[1]; read-out: MIC TOL TZB,8 µg/mL
same,MIC,"[1]; E. coli DH10B/pTU626 (PDC-89), read-out: MIC TOL Alone",16 µg/mL
same,MIC,[2]; read-out: MIC TOL TZB,4 µg/mL
same,MIC,"[2]; E. coli DH10B/pTU609 (PDC-3), read-out: MIC TOL Alone",4 µg/mL
same,difference between hydrolysis progress curves of PDC-3 and PDC-88,[3],no appreciable difference
same,acyl-enzyme complex formation and deacylation,[4],did not form a detectable acyl-enzyme complex
same,MIC,[5]; read-out: MIC TOL Alone,0.5 µg/mL
same,MIC,[5]; read-out: MIC TOL TZB,0.5 µg/mL
same,MIC,[6]; read-out: MIC TOL TZB,8 µg/mL
same,MIC,"[6]; E. coli DH10B/pTU625 (PDC-88), read-out: MIC TOL Alone",16 µg/mL
same,MIC,[7]; read-out: MIC TOL TZB,4 µg/mL
same,MIC,"[7]; E. coli DH10B/pTU606 (PDC-1), read-out: MIC TOL Alone",4 µg/mL
same,MIC,[13],0.25 µg/mL
same,MIC,[9]; read-out: MIC TOL TZB,16 µg/mL
same,MIC,"[9]; E. coli DH10B/pTU627 (PDC-90), read-out: MIC TOL Alone",16 µg/mL
same,MIC,[10]; read-out: MIC TOL TZB,16 µg/mL
same,MIC,"[10]; E. coli DH10B/pTU628 (PDC-91), read-out: MIC TOL Alone",16 µg/mL
same,MIC,[11]; read-out: MIC TOL TZB,8 µg/mL
same,MIC,"[11]; E. coli DH10B/pTU629 (PDC-92), read-out: MIC TOL Alone",16 µg/mL
same,acyl-enzyme complex formation and deacylation,[12],formed an acyl-enzyme complex that deacylated at a moderate rate
"C[C@]1(Cn2ccnn2)[C@H](C(=O)O)N2C(=O)C[C@H]2S1(=O)=O [TZB, tazobactam]",increase of Tm upon addition of inhibitor,[14]; PDC-88,1 °C
same,Tm,"[14]; PDC-88 with inhibitor, circular dichroism, PDC-88 alone 53°C",54 °C
same,decrease of FEP MIC of variants by inhibitor,[15]; inhibitor at constant 4 µg/mL with FEP,two- to fourfold
same,restoration of FEP activity / susceptibility by inhibitor,[15]; inhibitor at constant 4 µg/mL,failed to restore susceptibility for any of the variants
same,increase of Tm upon addition of inhibitor,[16]; PDC-3,1 °C
same,Tm,"[16]; PDC-3 with inhibitor, circular dichroism, PDC-3 alone 52°C",53 °C
